Experimental data reported in patent US8513214B2, “C4′-substituted-2-deoxyadenosine analogs and methods of treating HIV” (The United States of America as Represented by the …, priority 2007, dated 2013).
Like-named read-outs stand apart in the source and are kept apart here.

What was measured:
[1] = system: HIV-1 vectors (wild-type); type: cell-based
[2] = system: HIV-1 M184V variant; type: cell-based; details: HOS cells, single-cycle infectivity assay
[3] = system: NRTI-resistant HIV-1, including the M184V variant; details: infected MT-4 cells, Ohrui 2006, Ohuri 2007, Kawamoto 2008, cited from earlier work
[4] = system: MT-4 cells; details: previously reported; cited from earlier work
[5] = biological target: T1, HIV-1 RT (Human immunodeficiency virus type 1 group M subtype B, UniProt P03366); test: Polymerase (DNA) extension assay with purified recombinant HIV-1 RT; type: biochemical
T1 construct: The expression and purification of HIV-1 RT and the polymerase assays were done as previously described; made in house
Experimental: FIG. 15. In vitro DNA extension using purified, recombinant HIV-1 RT, with varying amounts of C4′-methyl-2-deoxyadenosinetriphosphate and either (A) a DNA template or (B) and RNA template. […] Bands in the lane containing equimolar amounts of ddATP and dATP correspond to pausing events at the site of incorporation of the nuclosidetriphosphate analog.
The expression and purification of HIV-1 RT and the polymerase assays were done as previously described. For the extension assays, 7.0µl of a […] of synthetic DNA oligonucleotide (5′-[…]-3′ (SEQ ID NO:1); Biosource, CA) was 5′ end-labeled, then annealed to an excess of either a DNA template (5′-[…]-3′ (SEQ ID NO:2)) or an RNA template (5′-[…]-3′ (SEQ ID NO:3)). The A residue is the first nucleotide past the 3′ end of the primer. The annealed template-primer (T/P) was suspended in a final concentration of 25.0 mM Tris (pH 8.0), 75 mM KCl, 8.0 mM MgCl2, 100.0µg/ml BSA, 10.0 mM CHAPS, and 10.0µM each of dCTP, dGTP, and TTP. For the RNA template reactions, the mixture was also supplemented with 1 U/µl of SuperAsin (Ambion). The reaction buffer was aliquoted to individual tubes, then supplemented with a total of 10.0µM dATP and/or adenosine triphosphate analog (as described in the figure legend). The reactions were initiated by the addition of 1.0µg RT and the reaction was incubated at 37° C. for the various indicated time intervals. Reactions were stopped by the addition of EDTA and the reactions precipitated by the addition of isopropyl alcohol. The products were resuspended in formamide gel loading buffer II (Ambion), heated at 70° for 5 min to denature the products, and fractionated on a 15% polyacrylamide sequencing gel.

[6] = system: HIV-1 AZT-R; type: cell-based
[7] = system: HIV-1 SSGR+215; type: cell-based
[8] = system: HIV-1 Q151M complex; type: cell-based
[9] = system: HIV-1 viral DNA synthesis (reverse transcriptase); test: Quantitative PCR of viral DNA from infected HOS cells; type: cell-based; details: viral DNA collected 2, 4, 6 and 24 hours post-infection
Description: FIG. 5 is a schematic illustrating the steps of HIV-1 viral DNA synthesis. Viral DNA was isolated from infections over time and assayed by quantitative PCR to determine the amount of viral DNA produced corresponding to various points of DNA synthesis. The regions targeted by our PCR primers and probes are indicated and correspond to: initiation (RU5), minus strand transfer (U3), full length viral DNA (gag), and plus strand transfer (corresponding to second strand synthesis).
The effects of the target compounds on viral DNA production were determined by quantitative PCR. 293 cells were transfected as above and transfections were washed with PBS 8 hours post-transfection and fresh medium added. The transfection wash step was repeated 24 hours post-transfection and fresh medium was added. On the day prior to infection, HOS cells were plated at 2×10^5 cells on to 60 mm plates. Virus-containing supernatants were harvested at 48 hours as above and treated with 20 U/mL of RNase-free DNase I (Roche Applied Science, Indianapolis, Ind.) and 30 U/mL of DNase Turbo (Ambion, Foster City, Calif.). Cells were pre-incubated with the target compounds for 3 h. For each target compound, the treated virus-containing supernatants were concentrated to 7.5 mL, and infections carried out by adding 1.75 mL each to 4 plates of HOS cells. Cells were harvested at 2, 4, 6, and 24 hour intervals and the viral DNA purified using the Qiagen EZ1 DNA tissue kit (Valencia, Calif.). Quantitative PCR (qPCR) was used to determine quantities of DNA corresponding to various steps along the viral DNA synthesis pathway. qPCR primers and probes used were as previously described. (Julias, J. G., Ferris, A. L., Boyer, P. L. and Hughes, S. H. (2001) J. Virol. 75, 6537-46.).
In order to determine that the compounds are targeting HIV-1 reverse transcriptase in the cell based assays, viral DNA was isolated from infections over time and assayed by quantitative PCR to determine the amount of viral DNA produced corresponding to various points of DNA synthesis (FIG. 5). The regions targeted by our PCR primers and probes correspond to: initiation (RU5), minus strand transfer (U3), full length viral DNA (gag), and plus strand transfer (corresponding to the initiation of second strand synthesis).

[10] = system: HIV-1; type: cell-based
[11] = system: HOS cells
[12] = system: MT4 cells; details: work from Ohuri and others; cited from earlier work

C#C[C@]1(CO)O[C@@H](n2cnc3c(N)nc(F)nc32)C[C@@H]1O [C4′-ethynl-deoxy-2-fluoro-adenosine, C4′-ethynl-deoxy-2-fluoroadenosine]
efficacy against WT versus C4′-methyl- and -ethyl-2-deoxyadenosine [1]: slightly improved efficacies against WT | increase in EC50 values, M184V variant over wild-type [2]: 2 fold | effectiveness against HIV-1 in MT-4 cells [3]: effective compound against NRTI-resistant HIV-1, including the M184V variant | effectiveness against HIV-1 in MT-4 cells ([3]; listed as C4′-ethynl-deoxy-2-fluoroadenosine): effective against the wild-type and the M184V reverse transcriptase variant | cytotoxicity in MT-4 cells [4]: decreased cytotoxicity

C[C@]1(COP(=O)(O)OP(=O)(O)OP(=O)(O)O)O[C@@H](n2cnc3c(N)ncnc32)C[C@@H]1O [C4′-methyl-2-dexoyadenosinetriphosphate]
chain termination ([5]; longer time points, extended DNA products observed): does not act as a chain terminator | competition with normal nucleosides ([5]; mixtures of ATP and the triphosphate): able to compete with normal nucleosides during DNA synthesis | effect of triphosphate incorporation on DNA synthesis ([5]; short time points, DNA or RNA template): pausing during DNA synthesis at the point of incorporation

CCC1(CO)OC(n2cnc3c(N)ncnc32)CC1O (stereo not drawn) [C4′Et-2-dA, 5-(6-Amino-purin-9-yl)-2-ethyl-2-hydroxymethyl-tetrahydro-furan-3-ol]
inhibition of NRTI resistance mutant AZT-R [6]: inhibitory | increase in the EC50 value, AZT-R variant over wild-type ([6]; HOS cells): 3.9 fold | inhibition of NRTI resistance mutant SSGR+215 [7]: inhibitory | inhibition of NRTI resistance mutant Q151M complex [8]: inhibitory | inhibition of DNA synthesis compared with AZT [9]: as well as or better than AZT | late stage viral DNA synthesis (gag and 2nd Strand Transfer) [9]: significantly diminished | effectiveness in TZM-bl cells compared with HOS cells ([10]; TZM-bl cells): equally as effective | selectivity index (CC50 to EC50 ratio) [11]: greater than 140

C[C@]1(CO)O[C@@H](n2cnc3c(N)ncnc32)C[C@@H]1O [C4′Me-2-dA, C4′-methyl-2-deoxyadenosine]
EC50 ([1]; read-out: EC50, relative infectivity of HIV-1 vectors): 48 nM | inhibition of NRTI resistance mutant AZT-R [6]: inhibitory | inhibition of NRTI resistance mutant SSGR+215 [7]: inhibitory | inhibition of NRTI resistance mutant Q151M complex [8]: inhibitory | inhibition of DNA synthesis compared with AZT [9]: as well as or better than AZT | late stage viral DNA synthesis (gag and 2nd Strand Transfer) [9]: significantly diminished | effectiveness in TZM-bl cells compared with HOS cells [10]: equally as effective | cytotoxicity in MT4 cell killing assays [12]: cytotoxic
